# Measured values: patent US10005792B2, “Aminoindane-, aminotetrahydronaphthalene- and aminobenzocyclobutane-derived PRMT5-inhibitors” (CTXT PTY LTD, priority 2014, dated 2018)
# Columns and labels:
# [1] = system: symmetrical dimethylation of arginine (Di-Methyl Histone H4 Arginine 3) in cell line TE11; test: Revised PRMT5 Biomarker Assay; conditions: Homo sapiens, TE-11; TE11 cells, 72 hours incubation, immunofluorescence, corrected for cell number (Hoechst 33342), plate reader based
# Experimental: Compounds of the invention may be tested for potency to inhibit symmetrical dimethylation of arginine in the following assay:
# The cell line TE11 was seeded at a density of 6,000 cells per well in 96 well optical quality tissue culture plates in DME medium and 10% foetal bovine serum, and allowed to adhere for 5 hours under standard culture conditions (37 degree Celsius, 5% CO2). Compound dilutions prepared in DMSO were added to the medium, with negative control wells reserved for treatment with DMSO only and positive controls receiving a potent PRMT5 inhibitor compound at 1 μM concentration. After incubation for 72 hours, the cells were fixed with 3.7% formaldehyde in PBS for 30 minutes at room temperature, washed with phosphate buffer saline and blocked with Odyssey blocking buffer (LI-COR, Lincoln, Nebr.). Rabbit anti-Di-Methyl Histone H4 Arginine 3 specific antibody (Epigentek) in Odyssey blocking buffer was added and incubated for 14 hours at 4 degree Celsius. After washing, anti-rabbit secondary antibody labelled with Alexa647 dye (LifeTechnologies) and Hoechst 33342 (1 μg/mL, SigmaAldrich) were added for 1 hour incubation. Plates were washed and read on a PerkinElmer Envision 2103 in fluorescence intensity scanning mode (24 scans across the well area). The methylation level information was corrected for the number of cells as expressed by the Hoechst 33342 stain, converted to percent inhibition relative to controls on the same plate and the data fitted against a four-parameter logistic model to determine the 50% inhibitory concentration (IC50 plate-reader based). Alternatively, the plates were imaged on a PerkinElmer Phenix high content imaging platform. Using a Columbus image analysis pipeline, individual nuclei were located by Hoechst 33342 stain and the methylation level was calculated from the Alexa647-related intensity in the same area. The resulting mean intensity per cell was directly converted to percent inhibition as outlined above (IC50, imager based)).
# [2] = molecular target: T1, Full-length PRMT5 enzyme co-expressed with MEP50 (Homo sapiens (Human), UniProt O14744); test: Revised PRMT5 Biochemical Assay; conditions: 1 μM histone H4 derived peptide substrate, 1 μM S-Adenosyl methionine, 4 hours at 37 degree Celsius, Transcreener EPIGEN fluorescence polarisation
# Method in brief: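 Full-length human PRMT5 co-expressed with His-MEP50 in insect cells (15 ng/reaction), 1 μM H4-derived peptide and 1 μM SAM in PBS/0.01% Tween-20/egg albumin/1 mM DTT, 4 h at 37 °C. SAH formation read by Transcreener EPIGEN fluorescence polarisation after 90 min detection. IC50 from four-parameter fit of plate-normalised % inhibition.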
# [3] = molecular target: T1, Full-length PRMT5 enzyme co-expressed with MEP50; test: PRMT5 Biochemical Assay; conditions: 200 nM histone H4 derived peptide substrate, 1 μM S-Adenosyl methionine, 4 hours at 37° C, Transcreener EPIGEN fluorescence polarisation
# Experimental: Compounds of the invention may be tested for in vitro activity in the following assay: A histone H4 derived peptide is used as substrate (amino acid sequence: […]NH2). Full-length PRMT5 enzyme (NCBI Reference sequence NP-006100.2) was co-expressed with Hiss-MEP50 in insect cells and purified via Nickel immobilized metal affinity and gel filtration chromatography (“the enzyme”).
# The 6 μL assay reactions are run in Greiner brand black 384-well low volume plates. All reactions contained assay buffer (phosphate buffered saline, 0.01% (v/v) Tween-20, 0.01% (w/v) albumin from chicken egg white, 1 mM dithiothreitol, 200 nM peptide substrate, 1 μM S-Adenosyl methionine, and 15 ng/reaction enzyme, with the enzyme being omitted from negative control reactions. Compounds were added in a volume of 100 nL from dilution series prepared in DMSO, positive and negative control reactions receiving the same volume DMSO without compound. The plates were sealed with adhesive seals and incubated for 4 hours at 37° C. Reaction progress was measured using the Transcreener™ EPIGEN methyltransferase assay (BellBrook Labs, Madison, Wis.) as recommended by the manufacturer. To each reaction 2 μL detection mix were added, containing coupling enzymes, fluorescence polarisation tracer, and AMP antibody. Plates were incubated for 90 min before being read on a PerkinElmer EnVision™ plate reader in fluorescence polarisation mode.
# T1 sequence (O14744 whole entry): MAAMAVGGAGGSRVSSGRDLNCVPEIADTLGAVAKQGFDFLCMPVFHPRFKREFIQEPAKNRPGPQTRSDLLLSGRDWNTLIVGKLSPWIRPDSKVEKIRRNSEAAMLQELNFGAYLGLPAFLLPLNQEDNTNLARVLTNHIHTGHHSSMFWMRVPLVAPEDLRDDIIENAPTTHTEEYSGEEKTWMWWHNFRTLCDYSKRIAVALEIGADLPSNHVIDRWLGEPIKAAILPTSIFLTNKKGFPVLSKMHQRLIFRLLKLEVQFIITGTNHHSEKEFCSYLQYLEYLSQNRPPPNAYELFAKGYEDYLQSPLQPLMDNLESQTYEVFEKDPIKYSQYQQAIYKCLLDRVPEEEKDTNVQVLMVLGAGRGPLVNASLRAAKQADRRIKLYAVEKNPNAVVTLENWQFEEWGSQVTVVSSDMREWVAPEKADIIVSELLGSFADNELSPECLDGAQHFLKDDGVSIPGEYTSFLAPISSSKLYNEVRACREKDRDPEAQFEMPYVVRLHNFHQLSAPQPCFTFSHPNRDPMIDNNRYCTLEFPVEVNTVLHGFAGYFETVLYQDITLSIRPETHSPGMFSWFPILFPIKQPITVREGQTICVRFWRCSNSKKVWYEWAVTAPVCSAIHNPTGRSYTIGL
# T1 sequence (Q9BQA1 whole entry partner): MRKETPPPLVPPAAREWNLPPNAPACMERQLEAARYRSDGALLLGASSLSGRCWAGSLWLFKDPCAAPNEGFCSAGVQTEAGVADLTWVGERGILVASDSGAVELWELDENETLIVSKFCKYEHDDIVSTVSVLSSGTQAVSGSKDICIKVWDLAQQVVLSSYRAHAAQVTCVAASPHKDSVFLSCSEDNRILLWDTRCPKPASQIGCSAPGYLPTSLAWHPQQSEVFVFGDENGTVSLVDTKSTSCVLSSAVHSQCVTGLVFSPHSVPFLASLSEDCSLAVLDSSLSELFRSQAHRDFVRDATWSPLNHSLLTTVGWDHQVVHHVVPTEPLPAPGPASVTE
IC50 [1] [µM],IC50 [2] [nM],IC50 [3] [nM],Structure (SMILES)
0.002,137,–,"CCOc1cc(C(=O)N2C[C@H]3C[C@@H]2CO3)ccc1C(=O)NC[C@@H](O)CNC1Cc2ccccc2C1 [Compound 127, 4-((1R,4R)-2-oxa-5-azabicyclo[2.2.1]heptane-5-carbonyl)-N-((S)-3-((2,3-dihydro-1H-inden-2-yl)amino)-2-hydroxypropyl)-2-ethoxybenzamide]"
–,–,977,"O=C(NCC(O)CNC1Cc2ccccc2C1)c1ccc(C(=O)N2CCC2)cc1 (stereo not shown) [Compound 20, 4-(Azetidine-1-carbonyl)-N-(3-((2,3-dihydro-1H-inden-2-yl)amino)-2-hydroxypropyl)benzamide]"
–,–,18800,"O=C(NCC(O)CNC1CCc2cc(F)ccc2C1)c1ccc(Cl)cc1 (stereo not shown) [Compound 32, 4-Chloro-N-(3-((6-fluoro-1,2,3,4-tetrahydronaphthalen-2-yl)amino)-2-hydroxypropyl)benzamide]"
–,–,4430,"O=C(NCCC(O)CNC1Cc2ccccc2C1)c1ccc(Cl)cc1 (stereo not shown) [Compound 29, 4-Chloro-N-(4-((2,3-dihydro-1H-inden-2-yl)amino)-3-hydroxybutyl)benzamide]"
–,–,22600,"O=C(NCC(O)CNC1CCc2ccc(F)cc2C1)c1ccc(Cl)cc1 (stereo not shown) [Compound 31, 4-Chloro-N-(3-((7-fluoro-1,2,3,4-tetrahydronaphthalen-2-yl)amino)-2-hydroxypropyl)benzamide]"
–,–,309,"Cc1nc(-c2ccc(C(F)(F)F)cc2)sc1C(=O)NC[C@H](O)CNC1Cc2ccccc2C1 [Compound 3, (R)—N-(3-((2,3-Dihydro-1H-inden-2-yl)amino)-2-hydroxypropyl)-4-methyl-2-(4-(trifluoromethyl)phenyl)thiazole-5-carboxamide]"
–,–,120,"O=C(NCC(O)CNC1Cc2ccccc2C1)c1ccc(C(=O)N2CC3CCC(C2)O3)cc1 (stereo not shown) [Compound 39, 4-(8-Oxa-3-azabicyclo[3.2.1]octane-3-carbonyl)-N-(3-((2,3-dihydro-1H-inden-2-yl)amino)-2-hydroxypropyl)benzamide]"
–,–,629,"Cc1nnc(-c2ccc(C(=O)NC[C@@H](O)CNC3Cc4ccccc4C3)cc2)o1 [Compound 17, (S)-N-(3-((2,3-Dihydro-1H-inden-2-yl)amino)-2-hydroxypropyl)-4-(5-methyl-1,3,4-oxadiazol-2-yl)benzamide]"

# Further lines, the compound ahead of its results:
Structure (SMILES),IC50 [1] [µM],IC50 [2] [nM],IC50 [3] [nM]
"CCOc1cc(C(=O)N2CCS(=O)(=O)CC2)ccc1C(=O)NC[C@@H](O)CNC1Cc2ccccc2C1 [Compound 114, (S)-N-(3-((2,3-dihydro-1H-inden-2-yl)amino)-2-hydroxypropyl)-4-(1,1-dioxidothiomorpholine-4-carbonyl)-2-ethoxybenzamide]",0.024,66,–
"O=C(NC[C@@H](O)CNC1Cc2ccccc2C1)c1ccc(C(=O)N2C3CCC2COC3)cc1 [Compound 103, 4-(3-oxa-8-azabicyclo[3.2.1]octane-8-carbonyl)-N-((S)-3-((2,3-dihydro-1H-inden-2-yl)amino)-2-hydroxypropyl)benzamide]",0.017,120,–
"CCOc1cc(C(=O)N2C3CCCC2COC3)ccc1C(=O)NC[C@@H](O)CNC1Cc2ccccc2C1 [Compound 135, 4-(3-Oxa-9-azabicyclo[3.3.1]nonane-9-carbonyl)-N—((S)-3-((2,3-dihydro-1H-inden-2-yl)amino)-2-hydroxypropyl)-2-ethoxybenzamide]",0.0003,15,–
"CCOc1cc(C(=O)N2CCOCC2)ccc1C(=O)NC[C@@H](O)CNC1Cc2ccccc2C1 [Compound 75, (S)-N-(3-((2,3-dihydro-1H-inden-2-yl)amino)-2-hydroxypropyl)-2-ethoxy-4-(morpholine-4-carbonyl)benzamide]",0.004,64,–
"Cc1nnc(-c2ccc(C(=O)NC[C@H](O)CNC3Cc4ccccc4C3)cc2)o1 [Compound 12, (R)-N-(3-((2,3-Dihydro-1H-inden-2-yl)amino)-2-hydroxypropyl)-4-(5-methyl-1,3,4-oxadiazol-2-yl)benzamide]",–,–,695
"O=C(NCC(O)CNC1Cc2ccccc2C1)c1ccccc1-c1ccccc1 (stereo not shown) [Compound 26, N-(3-((2,3-Dihydro-1H-inden-2-yl)amino)-2-hydroxypropyl)-[1,1′-biphenyl]-2-carboxamide]",–,–,3870
"O=C(NC[C@H](O)CNC1Cc2ccccc2C1)c1cnn(-c2ccc(F)cc2)c1 [Compound 9, (R)-N-(3-((2,3-Dihydro-1H-inden-2-yl)amino)-2-hydroxypropyl)-1-(4-fluorophenyl)-1H-pyrazole-4-carboxamide]",–,–,3720
"O=C(NC[C@H](O)CNC1Cc2ccccc2C1)c1cnn(-c2ccccc2)c1 [Compound 4, (R)-N-(3-((2,3-Dihydro-1H-inden-2-yl)amino)-2-hydroxypropyl)-1-phenyl-1H-pyrazole-4-carboxamide]",–,–,3790
"CCOc1cc(C(=O)N2CCOC[C@@H]2CC)ccc1C(=O)NC[C@@H](O)CNC1Cc2ccccc2C1 [Compound 124, N-((S)-3-((2,3-dihydro-1H-inden-2-yl)amino)-2-hydroxypropyl)-2-ethoxy-4-((S)-3-ethylmorpholine-4-carbonyl)benzamide]",0.013,48,–
"CN(CC(O)CNC(=O)c1ccc(Cl)cc1)C1CCc2ccccc2C1 (stereo not shown) [Compound 33, 4-Chloro-N-(2-hydroxy-3-(methyl(1,2,3,4-tetrahydronaphthalen-2-yl)amino)propyl) benzamide]",–,–,24900
"O=C(NC[C@H](O)CNC1Cc2ccccc2C1)c1ccc(N2CCOCC2)nc1 [Compound 11, (R)-N-(3-((2,3-Dihydro-1H-inden-2-yl)amino)-2-hydroxypropyl)-6-morpholinonicotinamide]",–,–,830
"O=C(NCC(O)CNC1Cc2ccccc2C1)c1ccc(C(=O)N2CCOCC2)cc1F (stereo not shown) [Compound 27, N-(3-((2,3-Dihydro-1H-inden-2-yl)amino)-2-hydroxypropyl)-2-fluoro-4-(morpholine-4-carbonyl)benzamide]",–,–,434
"O=C(NCC(O)CNC1Cc2ccccc2C1)c1ccc(Cl)cc1 (stereo not shown) [Compound 1, 4-Chloro-N-(3-((2,3-dihydro-1H-inden-2-yl)amino)-2-hydroxypropyl)benzamide]",–,–,792
"Cc1nn(C)cc1-c1cc(C(=O)NC[C@H](O)CNC2Cc3ccccc3C2)no1 [Compound 5, (R)-N-(3-((2,3-Dihydro-1H-inden-2-yl)amino)-2-hydroxypropyl)-5-(1,3-dimethyl-1H-pyrazol-4-yl)isoxazole-3-carboxamide]",–,–,9780
"O=C(NCC(O)CNC1Cc2ccccc2C1)c1cccc(-c2ccccc2)c1 (stereo not shown) [Compound 25, N-(3-((2,3-Dihydro-1H-inden-2-yl)amino)-2-hydroxypropyl)[1,1′-biphenyl]-3-carboxamide]",–,–,2220
"CC1(C)CN(C(=O)c2ccc(C(=O)NCC(O)CNC3Cc4ccccc4C3)cc2)CCO1 (stereo not shown) [Compound 41, N-(3-((2,3-Dihydro-1H-inden-2-yl)amino)-2-hydroxypropyl)-4-(2,2-dimethylmorpholine-4-carbonyl)benzamide]",–,–,157
"O=C(NC[C@H](O)CNC1Cc2ccccc2C1)c1cnn(-c2cccc(Cl)c2)c1 [Compound 10, (R)-1-(3-Chlorophenyl)-N-(3-((2,3-dihydro-1H-inden-2-yl)amino)-2-hydroxypropyl)-1H-pyrazole-4-carboxamide]",–,–,1440
